Assay [1] deals with endothelin A receptor / endothelin B receptor / endothelin converting enzyme. The settings on record: ETA: endothelin A receptor; ETB: endothelin B receptor; ECE: endothelin converting enzyme (inhibition); from the literature cited in the tables; cited from earlier work.
The subject of assay [2] is total brain infarct models (gerbils, bilateral common carotid arteries obstructed for 15 minutes). The assay can be described thus: Total brain infarct model, survival (Test Example 2). It counts as in vivo, gerbil. Particulars: 3 mg/kg intraperitoneally twice (60 min before obstruction, 90 min after reperfusion), n=11, vehicle group 0%, p<0.05. As for the experimental part: Mature male gerbils were divided into 2 groups and total brain infarct models were constructed by obstructing the bilateral common carotid arteries for 15 minutes (Nagisa et al., Basic Pharmacology & Therapeutics,23, 103-108, 1995). Control saline (vehicle) (Group A) and compound 2 (3 mg/kg) (Group B) were administered intraperitoneally twice, namely 60 minutes before obstruction and 90 minutes after reperfusion and the survival rates at 8 hours following reperfusion were compared between the groups. Intergroup comparison was made by ANOVA test (one-way analysis of variance).

Consider 34 compounds from patent US6251861A, “Treatment of cerebral infarction using cyclic hexapeptides” (Takeda Chemical Industries, Ltd., priority 1996, dated 2001).

In the case of “27-O-3-[2-(3-carboxy-acryloylamino)-5-hydroxyphenyl]-acryloyloxy myricerone, sodium salt [97-139]”, the Selectivity entry in assay [1] is listed as “ETA”.

On to `CCCc1cc(C(=O)O)ccc1OC(C(=O)NS(=O)(=O)c1ccc(C(C)C)cc1)c1ccc2c(c1)OCO2` (racemic) [L-749329, (±)N-(4-isopropylbenzenesulphonyl)-α-(4-carboxy-2-n-propylphenoxy)-3,4-methylene dioxyphenyl acetamide], for which the Selectivity result in assay [1] was “ETA”.

`CCCc1cc(C(=O)OC)ccc1CC(C(=O)NS(=O)(=O)c1ccc(C(C)C)cc1)c1ccc2c(c1)OCO2` (racemic) [L-751281, (±)N-[2-(3,4-methylenedioxyphenyl)-3-(4-carbomethoxy-2-propylphenyl)-propanoly]-4-(isopropyl)benzene sulphonamide]: the Selectivity entry in assay [1] is given as “ETA”.

Take `CCCc1cc(C(=O)O)ccc1OC(C(=O)NS(=O)(=O)c1ccc(C(C)C)cc1)c1ccc2c(c1)OCO2` (single isomer, unassigned; (-)) [L-754142, (-)N-(4-isopropylbenzenesulphonyl)-α-(4-carboxy-2-n-propylphenoxy)-3,4-methylene dioxyphenyl acetamide]: in assay [1], the Selectivity result was “ETA”.

For `CC1(C)CC[C@]2(C(=O)O)CC[C@]3(COC(=O)/C=C/c4ccc(O)c(O)c4)C(=CC[C@@H]4[C@@]5(C)CCC(=O)C(C)(C)[C@@H]5CC[C@]43C)[C@@H]2C1` [50-235, 27-O-caffeoyl myricerone], in assay [1], the Selectivity result was “ETA”.

`COC(=O)c1cc(O)cc(OC)c1Oc1cc(C)cc(O)c1C(=O)O` [Asterric acid]: the Selectivity entry in assay [1] is given as “ETA”.

Turning to `Cc1noc(NS(=O)(=O)c2cccc3c(N(C)C)cccc23)c1C` [BMS-182874, 5-(dimethylamino)-N-(3,4-dimethyl-5-isoxazolyl)-1-naphthalene sulphonamide], the Selectivity result in assay [1] is “ETA”.

In the case of `O=P(O)(O)CN[C@@H](Cc1ccc(-c2ccccc2)cc1)c1nnn[nH]1` [CGS-26303, (S)-2-diphenyl-4-yl-1-(1H-tetrazol-5-yl)-ethylaminomethyl phosphonic acid], the Selectivity entry in assay [1] is on record as “ECE”.

For `O=P(CN[C@@H](Cc1ccc(-c2ccccc2)cc1)c1nnn[nH]1)(Oc1ccccc1)Oc1ccccc1` [CGS-26393, diphenyl[(S)-2-diphenyl-4-yl-1-(1H-tetrazol-5-yl)-ethylamino-methyl] phosphonate], the Selectivity entry in assay [1] is given as “ECE”.

For `CC(C)C[C@H](NC(=O)N1CCCCCC1)C(=O)NC(Cc1cn(C)c2ccccc12)C(=O)N[C@H](Cc1ccccn1)C(=O)O` (stereo partly drawn) [FR139317, (R)-2-{(S)-2-([1-{hexahydro-1H-azepinyl}carbonyl]-amino-methyl-pentamoyl)}-amino-3-(3[1-methyl-1H-indolyl])propionylamino-3-(2-pyridyl)propionic acid], in assay [1], the Selectivity result is reported as “ETA”.

Turning to `Cc1cc(C)cc(C(=O)N(C)[C@H](Cc2ccc(-c3ccccc3)cc2)C(=O)N[C@@H](Cc2c[nH]c3ccccc23)C(=O)O)c1` [IRL2500, N-(3,5-dimethylbenzoyl)-N-methyl-(D)-[(4-phenyl)-phenyl]-alanyl-L-tryptophan], the Selectivity entry in assay [1] was “ETB”.

Turning to `Cc1cc(C)cc(C(=O)N(C)[C@H](Cc2ccc(-c3ccsc3)cc2)C(=O)N[C@@H](Cc2c[nH]c3ccccc23)C(=O)O)c1` [IRL2659, N-(3,5-dimethylbenzoyl)-N-methyl-(D)-[4-(3-thienyl)-phenyl]-alanyl-L-tryptophan], the Selectivity result in assay [1] is “ETB”.

For `Cc1cc(C)cc(C(=O)N(C)[C@H](Cc2ccc(-c3ccno3)cc2)C(=O)N[C@@H](Cc2c[nH]c3ccccc23)C(=O)O)c1` [IRL2796, N-(3,5-dimethylbenzoyl)-N-methyl-(D)-[4-(5-isoxazolyl)-phenyl]-alanyl-L-tryptophan], the Selectivity entry in assay [1] is recorded as “ETB”.

`CC(C)C[C@H](NP(=O)(O)CCc1ccc2ccccc2c1)C(=O)N[C@@H](Cc1c[nH]c2ccccc12)C(=O)O` [N-2-(2-naphthyl)ethyl-phosphonyl-L-Leu-L-Trp]: the Selectivity entry in assay [1] is “ECE”.

For the compound `CC(C)C[C@H](NC(=O)N1CCCCCC1)C(=O)N[C@H](Cc1cn(C)c2ccccc12)C(=O)N[C@H](Cc1ccc(O)cc1)C(=O)O` [PD151242, (N-[(hexahydro-1-azepinyl)carbonyl])-L-Leu(1-Me)D-Trp-D-Tyr], the Selectivity entry in assay [1] is “ETA”.

Regarding `COc1ccc(C(=O)C(Cc2ccccc2)=C(C(=O)O)c2ccc3c(c2)OCO3)cc1` [PD155080, 2-benzo(1,3)dioxol-5-yl-3-benzyl-4-(4-methoxyphenyl)-4-oxobut-2-enoate], the Selectivity entry in assay [1] is “ETA”.

Take `CCCOc1cccc(CC(C(=O)c2ccc(OC)cc2)=C(C(=O)O)c2ccc3c(c2)OCO3)c1` [PD155719, 2-(1,3-benzodioxol-5-yl)-4-(4-methoxyphenyl)-4-oxo-3[(3-propoxyphenyl)methyl]-2-butenoic acid]: the Selectivity entry in assay [1] is recorded as “ETA”.

Turning to `COc1ccc(C(=O)C(Cc2cc(OC)c(OC)c(OC)c2)=C(C(=O)O)c2ccc3c(c2)OCO3)cc1` [PD156707, 2-benzo(1,3)dioxol-5-yl-4-(4-methoxyphenyl)-4-oxo-3-(3,4,5-trimethoxybenzyl)-but-2-enoate], the Selectivity result in assay [1] is given as “ETA”.

As to `CCCCCOc1c(OC)cc(CC2=C(c3ccc4c(c3)OCO4)C(=O)OC2(O)c2ccc(OC)cc2)cc1OC` (centres unmarked) [PD160672, 3-benzo(1,3)dioxol-5-yl-(3,5-dimethoxy-4-pentyloxybenzyl)-5-hydroxy-5-(4-methoxyphenyl)-5H-furan-2-one], in assay [1], the Selectivity result is reported as “ETA/ETB”.

As for `COc1cc(C2=C(CC3CCCCC3)C(O)(c3ccc4c(c3)OCCO4)OC2=O)cc2c1OCO2` (centres unmarked) [PD160874, 4-cryclohexyl-methyl-5-[2,3-dihydro-benzo(1,4)dioxin-6-yl]-5-hydroxy-3-[7-methoxybenzo(1,3)-dioxol-5-yl]-5H-furan-2-one], the Selectivity result in assay [1] is reported as “ETA/ETB”.

On to `CC(C)C[C@H](NP(=O)(O)O[C@@H]1O[C@@H](C)[C@H](O)[C@@H](O)[C@H]1O)C(=O)N[C@@H](Cc1c[nH]c2ccccc12)C(=O)O` [Phosphoramidon, N-phosphonyl L-Leu-L-Trp], for which the Selectivity entry in assay [1] was “ECE”.

In the case of `COc1cccc(Oc2c(NS(=O)(=O)c3ccc(C(C)(C)C)cc3)ncnc2OCCO)c1` [Ro46-2005, 4-tert-butyl-N-[6-(2-hydroxyethoxy)-5-(3-methoxyphenoxy)-4-pyrimidinyl]-benzenesulphonamide], the Selectivity result in assay [1] is “ETA/ETB”.

With `COc1ccc(-c2nc(NS(=O)(=O)c3ccc(C(C)(C)C)cc3)c(Oc3ccccc3OC)c(OC[C@@H](O)CO)n2)cc1` [Ro46-8443, 4-tert-butyl-N-[(S)6-(2,3-dihydroxypropoxy)-5-(2-methoxyphenoxy)-2-(4-methoxyphenyl)-pyrimidin-4-yl]-benzene sulphonamide], in assay [1], the Selectivity entry is recorded as “ETB”.

For the compound `CC(C)C[C@H](NP(=O)(O)CC(O)CO)C(=O)N[C@@H](Cc1c[nH]c2ccccc12)C(=O)[O-].CC(C)C[C@H](NP(=O)(O)CC(O)CO)C(=O)N[C@@H](Cc1c[nH]c2ccccc12)C(=O)[O-].[Na+].[Na+]` (stereo partly drawn) [S-17162, N-(2,3 dihydroxy propyl phosphonyl)-(S)-Leu-(S)-Trp-OH, disodium salt], in assay [1], the Selectivity result is reported as “ECE”.

For `CCCOc1ccc2c(c1)[C@@H](c1ccc(OC)cc1OCCO)[C@H](C(=O)O)[C@H]2c1ccc2c(c1)OCO2` [SB-217242, (+)-(1S,2R,3S)-3-[2-(2-hydroxyeth-1-yloxy)-4-methoxyphenyl]-1-(3,4-methylenedioxyphenyl)-5-(prop-1-yloxy)indan-2-carboxylic acid], in assay [1], the Selectivity result was “ETA/ETB”.

`CC(=O)NC(CSC12CCC3(O)CC(C)=CC(=O)C3(O)C1(O)C(=O)c1cccc(O)c1C2=O)C(=O)O` (centres unmarked) [WS009A, 2-acetamido-3-[[1,4,4a,5,6,6a,7,12,12a,12b-decahydro-4a,8,12a,12b-tetra-hydroxy-3-methyl-1,7,12-trioxobenz[a]anthracen-6a-yl]-thio]propionic acid]: the Selectivity result in assay [1] is reported as “ETA”.

As for `COc1ccccc1Oc1c(NS(=O)(=O)c2ccc(C(C)(C)C)cc2)nc(-c2ncccn2)nc1OCCO` [compound 2, 4-Tert-butyl-N-[6-(2-hydroxyethoxy)-5-(2-methoxyphenoxy)-2,2'-bipyrimidin-4-yl]-benzene sulfonamide], the Selectivity result in assay [1] is reported as “ETA/ETB”. Besides, the “survival rate at 8 hours after reperfusion” value in assay [2] was determined as 36%.

Take “Ac-D-Bhg-Leu-Asp-Ile-Ile-Trp.2Na [PD145065]”: in assay [1], the Selectivity entry is given as “ETA/ETB”.

With “Ac-D-Dip-Leu-Asp-Ile-Ile-Trp.2Na [PD142893]”, the Selectivity entry in assay [1] is recorded as “ETA/ETB”.

Take “Dmpc-.tau.-MeLeu-D-Trp(1-CO2 CH3)-D-Nle-OH [BQ-788]”: in assay [1], the Selectivity result is recorded as “ETB”.

For the compound “[Cys^11 -Cys^15 ]-ET-1(11-21) [IRL-1038]”, the Selectivity result in assay [1] was “ETB”.

cyc(D-Trp-D-Asp-Pro-D-Val-Leu) [BQ-123]: in assay [1], the Selectivity result is recorded as “ETA”.

With “cyc(Gly-Asn-Trp-His-Gly-Thr-Ala-Pro-Asp)-Trp-Phe-Asn-Tyr-Tyr-Trp [RES-7011]”, in assay [1], the Selectivity entry is listed as “ETB”.

For the compound “cys(D-Sal-L-Pro-D-Val-L-Leu-D-Trp) [BQ-153]”, the Selectivity result in assay [1] is listed as “ETA”.
